In paper PMC6474902, “Examination of novel 4-aminoquinoline derivatives designed and synthesized by a hybrid pharmacophore approach to enhance their anticancer activities” (Scientific Reports, 2019):
Where two headings read alike, the source gives them in different places.

Legend:
[1] = tested on: MDA-MB231; assay: SRB antiproliferative/antigrowth assay; type: cell-based, human; conditions: for GI50: SRB, 48 h post-treatment, mean of triplicates of at least two experiments, read-out: GI50 MB231
Protocol: (§1) The antigrowth effects of 4-piperazinylquinoline sulfonyl analogs on human breast tumor cells was initially evaluated using MDA-MB468 (a PTEN defective, EGFR positive breast adenocarcioma), MDA-MB231 (p53 and pRB mutated, triple-negative breast carcinoma), and MCF7 (p53+/−, invasive ductal breast carcinoma) cell lines. In addition, the cytotoxicity of all the compounds was also evaluated with the 184B5 and MCF10A non-cancer immortalized breast epithelial cell lines, to determine if these newly synthesized compounds have differential cytotoxic effects on cancer and non-cancer cells. The panel of three breast cancer cell lines with different genetic back ground and the well-studied two non-cancer immortalized breast cell lines would provide insights into the efficacy and toxicity of the test compounds in the different genetic background and at different stages of tumor development. The dose response of each cell line was established by determining the number of viable cells after 48 h of continuous drug treatment against seven different concentrations (100 µM to 0.0064 µM) of each compound. The reading of sulphorodamine B (SRB) staining is known to accurately reflect the level of total cellular macromolecules/cell growth/proliferation[6],[23]. […] The data for CQ and cisplatin were included as references. […] The differences in the GI50 values may be attributable to such factors as the nature of the sulfonyl group and the halogen substitution on the 7th position of the 4-piperazinylquinoline ring system, and the genetic and biochemical background of the cell lines.
(§2) Antiproliferative/antigrowth effects were determined by a SRB-based protocol[6],[23]. For a typical screening experiment, 5,000–10,000 cells were inoculated into 100 µL medium per well of a 96-well microtiter plate as described previously. Briefly, after the inoculation, the microtiter plate was incubated at 37 °C, 5% CO2, 95% air and 100% relative humidity for 24 h, prior to addition of experimental drugs. Some of the sample wells were fixed with 25 µL of 50% tricholoroacetic acid (TCA) as a control of the cell population for each cell line at the time of drug addition (Tz). An aliquot of the frozen stock was thawed and diluted to a desired final maximum test-concentration with complete medium. Two to ten-fold serial dilutions were made to provide a total of seven drug concentrations (and a control [C]). Following addition of drugs, the culture plate was incubated for additional 48 h. Cells were fixed in situ by slowly adding 25 µL of ice-cold 50% (w/v) TCA (final concentration, 10% TCA), and were then incubated for 60 min at 4 °C. The supernatant was discarded, and the plate was washed five times with tap water, followed by air-dry. 50 µL of SRB solution at 0.4% (w/v) in 1% acetic acid was added to each well, and the plate was incubated for >30 min at room temperature. Unbound SRB was removed by five washes with tap water, followed by air-drying. The cells “stained” with SRB were solubilized with 10 mM trizma base, and the absorbance was read on an automated plate reader at a wavelength of 515–564 nm. The relative growth rate (%) was calculated for each of the compound concentrations according to the following formula: (Ti−Tz)/(C−Tz)×100
(§3) In the formula, time zero (Tz), control growth (C), and OD for different concentration of tested compounds (Ti). The GI50 for each compound was obtained from a non-linear Sigmoidal dose-response (variable slope) curve which is fitted by GraphPad Prism v.4.03 software. Values were calculated for each of these parameters if the level of activity was reached. However, if the effect was not reached or was exceeded, the value for that parameter was expressed as greater or less than the maximum or minimum concentration tested.

[2] = tested on: MCF7; assay: SRB antiproliferative/antigrowth assay; type: cell-based, human; conditions: for GI50: SRB, 48 h post-treatment, mean of triplicates of at least two experiments, read-out: GI50 MCF7
Protocol: as §1, §2, §3

[3] = tested on: MDA-MB468; assay: SRB antiproliferative/antigrowth assay; type: cell-based, human; conditions: SRB, 48 h post-treatment, mean of triplicates of at least two experiments, read-out: GI50 MB468
Protocol: as §1, §2, §3

[4] = tested on: 184B5; assay: SRB antiproliferative/antigrowth assay, non-cancer cells; type: cell-based, human; conditions: SRB, 48 h post-treatment, non-cancer breast epithelial cells, read-out: GI50 184B5
Protocol: as §1, §2, §3

[5] = tested on: MCF10A; assay: as above; type: cell-based, human; conditions: SRB, 48 h post-treatment, non-cancer breast epithelial cells, read-out: GI50 MCF10A
Protocol: as §1, §2, §3

Row | Compound | GI50 [1] [µM] | GI50 [2] [µM] | GI50 [3] [µM] | GI50 ([1]; Homo sapiens, MDA-MB-231, 48 h) [µM] | GI50 ([2]; Homo sapiens, MCF7, 48 h) [µM] | GI50 ([3]; Homo sapiens, MDA-MB-468, 48 h) [µM] | melting point [°C] | GI50 [4] [µM] | GI50 [5] [µM] | GI50 ([4]; Homo sapiens, 184B5, 48 h) [µM] | GI50 ([5]; Homo sapiens, MCF-10A, 48 h) [µM] | increase in antigrowth activity on MCF7 in comparison to methyl substituted compound 7 [2] [fold] | increase in antigrowth activity on MDA-MB231 in comparison to methyl substituted compound 16 [1] [fold] | increase in potency on MDA-MB231 in comparison to methyl substituted compounds (25 and 34) [1] | more effective than cisplatin (MDA-MB231) ([1]; ratio of GI50 values) [fold] | more effective than cisplatin (MCF7) ([2]; ratio of GI50 values) [fold]
1 | CS(=O)(=O)N1CCN(c2ccnc3cc(Cl)ccc23)CC1 [Compound 7, 7-Chloro-4-(4-(methylsulfonyl)piperazin-1-yl)quinoline] |  |  |  | 42.7 ± 0.8 | 22.9 ± 0.6 | 35.1 ± 0.8 |  |  |  | 11.5 ± 0.2 | 15.3 ± 0.1 |  |  |  |  | 
2 | O=S(=O)(c1ccc(Cl)cc1)N1CCN(c2ccnc3cc(Cl)ccc23)CC1 [Compound 10, 7-Chloro-4-(4-(4-chlorophenylsulfonyl)piperazin-1-yl)quinoline] |  |  |  | 25.5 ± 0.7 | 7.6 ± 0.1 | 16 ± 0.6 |  |  |  | 12.1 ± 0.2 | 8.7 ± 0.1 | 3 |  |  |  | 
3 | O=S(=O)(c1ccc(Cl)cc1Cl)N1CCN(c2ccnc3cc(Cl)ccc23)CC1 [Compound 11, 7-Chloro-4-(4-(2,4-dichlorophenylsulfonyl)piperazin-1-yl)quinoline] |  |  |  | 40.6 ± 0.8 | 13.5 ± 0.2 | 21.6 ± 0.6 | 145 to 147 |  |  | 12.4 ± 0.1 | 8.9 ± 0.2 |  |  |  |  | 
4 | O=[N+]([O-])c1cccc(S(=O)(=O)N2CCN(c3ccnc4cc(Cl)ccc34)CC2)c1 [Compound 12, 7-Chloro-4-(4-(3-nitrophenylsulfonyl)piperazin-1-yl)quinoline] |  |  |  | 34.7 ± 0.7 | 14.8 ± 0.2 | 25.1 ± 0.7 | 138 to 140 |  |  | 13.3 ± 0.2 | 15.5 ± 0.2 |  |  |  |  | 
5 | O=S(=O)(c1ccc(-c2ccccc2)cc1)N1CCN(c2ccnc3cc(C(F)(F)F)ccc23)CC1 [Compound 18, 4-[4-(Biphenyl-4-sulfonyl)-piperazin-1-yl]-7-trifluoromethyl-quinoline] |  |  |  | 27.2 ± 0.6 | 14.8 ± 0.2 | 20.5 ± 0.5 | 148 to 150 |  |  | 19.1 ± 0.2 | 15.5 ± 0.4 |  |  |  |  | 
6 | COC(=O)c1sccc1S(=O)(=O)N1CCN(c2ccnc3cc(C(F)(F)F)ccc23)CC1 [Compound 24, 3-[4-(7-Trifluoromethyl-quinolin-4-yl)-piperazine-1-sulfonyl]-thiophene-2-carboxylic acid methyl ester] |  |  |  | 34.7 ± 0.7 | 16 ± 0.2 | 23.9 ± 0.6 | 117 to 119 |  |  | 15.9 ± 0.1 | 15.8 ± 0.1 |  |  |  |  | 
7 | O=S(=O)(NCCCNc1ccnc2cc(Cl)ccc12)c1ccc(-c2ccccc2)cc1 [Compound 27, Biphenyl-4-sulfonic acid [3-(7-chloro-quinolin-4-ylamino)-propyl]-amide] |  |  |  | 4.6 ± 0.4 | 2.5 ± 0.2 | 4.5 ± 0.4 | 116 to 118 |  |  | 2.4 ± 0.1 | 2.6 ± 0.1 |  |  |  |  | 
8 | O=S(=O)(NCCCNc1ccnc2cc(Cl)ccc12)c1ccc(Cl)cc1 [Compound 28, 4-Chloro-N-(3-(7-chloroquinolin-4-ylamino)propyl)benzenesulfonamide] |  |  |  | 11.8 ± 0.9 | 4.3 ± 0.3 | 8.3 ± 0.7 |  |  |  | 6.4 ± 0.3 | 9.7 ± 0.1 |  |  | 3.5–4.4 fold |  | 
9 | O=S(=O)(NCCCNc1ccnc2cc(Cl)ccc12)c1ccc(Cl)cc1Cl [Compound 29, 2,4-Dichloro-N-[3-(7-chloro-quinolin-4-ylamino)-propyl]-benzenesulfonamide] |  |  |  | 6.8 ± 0.6 | 4 ± 0.2 | 3.6 ± 0.1 | 145 to 147 |  |  | 3.6 ± 0.2 | 6.8 ± 0.4 |  |  |  |  | 
10 | COC(=O)c1sccc1S(=O)(=O)NCCCNc1ccnc2cc(Cl)ccc12 [Compound 33, 3-[3-(7-Chloro-quinolin-4-ylamino)-propylsulfamoyl]-thiophene-2-carboxylic acid methyl ester] | 6.1 ± 0.5 | 4.2 ± 0.2 | 4.1 ± 0.3 | 5.97 | 4.22 | 4.18 |  | 15.7 ± 0.4 | 16.5 ± 0.8 | 15.7 | 16.5 |  |  |  | 4.0 | 6.1

Second part, led by results:

Row | GI50 [1] [µM] | GI50 [2] [µM] | GI50 [3] [µM] | GI50 ([1]; Homo sapiens, MDA-MB-231, 48 h) [µM] | GI50 ([2]; Homo sapiens, MCF7, 48 h) [µM] | GI50 ([3]; Homo sapiens, MDA-MB-468, 48 h) [µM] | melting point [°C] | Compound | GI50 [4] [µM] | GI50 [5] [µM] | GI50 ([4]; Homo sapiens, 184B5, 48 h) [µM] | GI50 ([5]; Homo sapiens, MCF-10A, 48 h) [µM] | increase in antigrowth activity on MCF7 in comparison to methyl substituted compound 7 [2] [fold] | increase in antigrowth activity on MDA-MB231 in comparison to methyl substituted compound 16 [1] [fold] | increase in potency on MDA-MB231 in comparison to methyl substituted compounds (25 and 34) [1] | more effective than cisplatin (MDA-MB231) ([1]; ratio of GI50 values) [fold] | more effective than cisplatin (MCF7) ([2]; ratio of GI50 values) [fold]
11 | 26.2 ± 0.6 | 9.2 ± 0.2 | 18.2 ± 0.5 |  |  |  |  | 7-Chloro-4-(4-(biphenylsulfonyl)piperazin-1-yl)quinoline [Compound 9] | 16.4 ± 0.2 | 12.4 ± 0.2 |  |  |  |  |  |  | 
12 |  |  |  | 40.4 ± 0.8 | 22.4 ± 0.2 | 30.2 ± 0.7 | 117 to 119 | COC(=O)c1sccc1S(=O)(=O)N1CCN(c2ccnc3cc(Cl)ccc23)CC1 [Compound 15, Methyl 3-(4-(7-chloroquinolin-4-yl)piperazin-1-ylsulfonyl)thiophene-2-carboxylate] |  |  | 15.2 ± 0.2 | 14.6 ± 0.1 |  |  |  |  | 
13 |  |  |  | 42.7 ± 0.8 | 20.8 ± 0.2 | 36.5 ± 0.8 | 126 to 128 | Cc1ccc(S(=O)(=O)N2CCN(c3ccnc4cc(C(F)(F)F)ccc34)CC2)cc1 [Compound 17, 4-[4-(Toluene-4-sulfonyl)-piperazin-1-yl]-7-trifluoromethyl-quinoline] |  |  | 12.9 ± 0.1 | 10.5 ± 0.1 |  |  |  |  | 
14 |  |  |  | 41.4 ± 0.8 | 27.4 ± 0.3 | 34.9 ± 0.8 | 144 to 146 | O=S(=O)(c1ccc(Cl)cc1)N1CCN(c2ccnc3cc(C(F)(F)F)ccc23)CC1 [Compound 19, 4-[4-(4-Chloro-benzenesulfonyl)-piperazin-1-yl]-7-trifluoromethyl-quinoline] |  |  | 21.8 ± 0.3 | 13.6 ± 0.2 |  |  |  |  | 
15 |  |  |  | 20.3 ± 0.5 | 16.7 ± 0.2 | 18.6 ± 0.5 | 137 to 139 | O=S(=O)(c1ccc(Cl)cc1Cl)N1CCN(c2ccnc3cc(C(F)(F)F)ccc23)CC1 [Compound 20, 4-[4-(2,4-Dichloro-benzenesulfonyl)-piperazin-1-yl]-7-trifluoromethyl-quinoline] |  |  | 20.4 ± 0.2 | 15.6 ± 0.2 |  | 2 |  |  | 
16 |  |  |  | 22.1 ± 0.6 | 12.9 ± 0.2 | 19.1 ± 0.6 | 98 to 100 | CN(C)c1cccc2c(S(=O)(=O)N3CCN(c4ccnc5cc(C(F)(F)F)ccc45)CC3)cccc12 [Compound 23, Dimethyl-{5-[4-(7-trifluoromethyl-quinolin-4-yl)-piperazine-1-sulfonyl]-naphthalen-1-yl}-amine] |  |  | 12 ± 0.2 | 15.4 ± 0.5 |  |  |  |  | 
17 |  |  |  | 40.9 ± 1.5 | 23.1 ± 0.9 | 28.6 ± 1 |  | CS(=O)(=O)NCCCNc1ccnc2cc(Cl)ccc12 [Compound 25, N-[3-(7-Chloro-quinolin-4-ylamino)-propyl]-methanesulfonamide] |  |  | 23.3 ± 0.9 | 39.1 ± 1.2 |  |  |  |  | 
18 |  |  |  | 20.4 ± 1.2 | 8.6 ± 0.4 | 9.2 ± 0.7 |  | O=[N+]([O-])c1cccc(S(=O)(=O)NCCCNc2ccnc3cc(Cl)ccc23)c1 [Compound 30, N-(3-(7-chloroquinolin-4-ylamino)propyl)-3-nitrobenzenesulfonamide] |  |  | 15.8 ± 0.9 | 31.1 ± 1.1 |  |  |  |  | 
